Measurements taken from patent publication US10363239B2, “Method for inhibiting growth of cancer cells” (Pain Therapeutics, Inc., priority 2013, dated 2019).
Read-outs that look alike come from different tables or passages of the source.

Experiments:
[1] = target: FLNA pentapeptide of SEQ ID NO: 1 (Bn-VAKGL) (Homo sapiens, UniProt P21333); test: FITC-NLX-based FLNA screening assay (inhibition of FITC-naloxone binding to Bn-VAKGL on streptavidin plates); conditions: 10 nM FITC-NLX
mu opiate receptor (MOR) = test: MOR agonist activity using [35S]GTPγS binding assay in striatal membranes; type: biochemical; conditions: for MOR agonist activity ([35S]GTPγS binding), FLNA-Binding Compound as Agonist 1 μM + BFNA: 1 μM compound + 1 μM β-funaltrexamine
How it was run: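 Striatal membranes (200 μg) were preincubated 5 min at 30 °C in HEPES pH 7.5 with 100 mM NaCl, 1 mM MgCl2 and 0.5 nM [35S]GTPγS, then 5 min more with 0.1–10 μM compound. Gαo was immunoprecipitated and bound radioactivity counted by scintillation.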

[2] = tested on: glioblastoma cells (U-87 MG); test: [3H]glucose uptake; type: cell-based, human; conditions: C0105 0.1-5 nM, other compounds 1 and 5 nM, twice daily for 4 days
Method: (§1) FIG. 1A through FIG. 1M illustrate the effects of various FLNA-binding compounds on glucose uptake in glioblastoma, melanoma, breast and pancreatic cancer cell lines, along with appropriate non-cancerous primary cell controls. Cells were grown in the absence or presence of 0.1-5 nM indicated compounds for 4 days. Following brief washes with PBS, cells were serum-deprived for 4 hours and then incubated in oxygenated Kreb's Ringer containing 0.1 μCi [^3H]glucose for 2 hours under constant oxygenation. The reaction was terminated by removal of the incubation medium, and cells were washed and scraped off to determine the amounts of [^3H]glucose in cells by scintillation spectrometry. […] N=5-6. […] . […] . To determine the effect of Compound C0105 on glucose utilization, the cancer and primary normal cells were plated extremely thinly (10%). Once cells attached, Compound C0105 was added at 0.1, 0.5, 1 or 5 nM in the medium twice daily (6 hours apart) for 4 days. The cells were serum-deprived (glucose deprived) for 2 hours. Cells were then rinsed with 1 ml PBS and glucose uptake was assessed by contacting the cells with [^3H]glucose (0.01 uCi/l ml) in Kreb's Ringer for 2 hours. Cells were then rinsed with 1 ml PBS 3 times, scraped off and their glucose content counted by liquid scintillation spectrophotometry.
(§2) Both glioblastoma and melanoma cells were plated extremely thinly. Once cells attached, Compound C0105 was added at 0.1, 0.5, 1 and 5 nM, whereas the other compounds were present at 1 and 5 nM in the medium twice daily (6 hours apart) for 4 days. The cells were serum-deprived (glucose deprived) for 2 hours. Cells were then rinsed with 1 ml PBS and glucose uptake was assessed by contacting the cells with [3H]glucose (0.01 uCi/l ml) of Kreb's Ringer for 2 hours. Cells were then rinsed with 1 ml PBS 3 times, scraped off and their glucose contents counted by liquid scintillation spectrophotometry.

melanoma cells (A2058) = test: [3H]glucose uptake; type: cell-based, human; conditions: C0105 0.1-5 nM, other compounds 1 and 5 nM, twice daily for 4 days
Method: as §1, §2

primary lung fibroblasts = test: [3H]glucose uptake; type: cell-based, human; conditions: C0105 0.1-5 nM, other compounds 1 or 5 nM; 4 days
Method: as §1, §2

[3] = tested on: non-small cell lung cancer cell lines; test: Glucose utilization; type: cell-based, human; conditions: data not shown
Method: To determine the effect of Compound C0105 on glucose utilization, the cancer and primary normal cells were plated extremely thinly (10%). Once cells attached, Compound C0105 was added at 0.1, 0.5, 1 or 5 nM in the medium twice daily (6 hours apart) for 4 days. The cells were serum-deprived (glucose deprived) for 2 hours. Cells were then rinsed with 1 ml PBS and glucose uptake was assessed by contacting the cells with [^3H]glucose (0.01 uCi/l ml) in Kreb's Ringer for 2 hours. Cells were then rinsed with 1 ml PBS 3 times, scraped off and their glucose content counted by liquid scintillation spectrophotometry.
. Primary lung fibroblast cells were used as control, non-cancerous cells to illustrate the difference in effects observed (FIG. 1C, FIGS. 1H-1I).

more than 65 receptors = test: Standard binding assay on more than 65 receptors; conditions: 10 μM concentration
[4] = FLNA-binding compound 0.01 μM, read-out: Percent Binding Inhibition
[5] = FLNA-binding compound 0.1 μM, read-out: Percent Binding Inhibition
[6] = FLNA-binding compound 1 μM, read-out: Percent Binding Inhibition
[7] = 0.1 μM compound relative to DAMGO
[8] = 1 μM compound + BFNA relative to DAMGO + BFNA
[9] = 1 μM compound relative to DAMGO
[10] = read-out: Percent Binding Inhibition, FLNA-binding compound 0.01 μM
[11] = read-out: Percent Binding Inhibition, FLNA-binding compound 0.1 μM
[12] = read-out: Percent Binding Inhibition, FLNA-binding compound 1 μM
[13] = Series C-2, 0.1 μM compound, relative to DAMGO
[14] = Series C-2, 0.1 μM compound, [35S]GTPγS binding to Gαo, striatal membranes
[15] = Series C-2, 1 μM compound + 1 μM β-FNA
[16] = Series C-2, 1 μM compound + β-FNA, relative to DAMGO + BFNA
[17] = Series C-2, 1 μM compound, relative to DAMGO
[18] = Series C-2, 1 μM compound, [35S]GTPγS binding to Gαo, striatal membranes

CC1CCC(C(C)C)C(OCC(CN2CC(C)OC(C)C2)NCc2ccccc2)C1 (centres unmarked) [Compound A0033]
inhibition at 0.01 µM [1, 4]: 46.4%
inhibition at 0.1 µM [1, 5]: 51.8%
inhibition at 1 µM [1, 6]: 56.5%
MOR agonist activity ([35S]GTPγS binding), FLNA-Binding Compound as Agonist 0.1 μM (mu opiate receptor (MOR); 0.1 μM compound): 155.8%
% DAMGO (0.1 μM) (mu opiate receptor (MOR); [7]): 79.4%
MOR agonist activity ([35S]GTPγS binding), FLNA-Binding Compound as Agonist 1 μM (mu opiate receptor (MOR); 1 μM compound): 254.6%
MOR agonist activity ([35S]GTPγS binding), FLNA-Binding Compound as Agonist 1 μM + BFNA (mu opiate receptor (MOR)): 118.2%
% DAMGO + BFNA (mu opiate receptor (MOR); [8]): 159.9%
% DAMGO (1 μM) (mu opiate receptor (MOR); [9]): 92.2%
Glucose utilization [2]: decreased the elevated glucose utilization
Glucose utilization (melanoma cells (A2058)): decreased the elevated glucose utilization
Glucose uptake / glucose content (primary lung fibroblasts): no significant inhibition in glucose content
Glucose utilization [3]: decreased the elevated glucose utilization

COc1ccc(OCC(O)CN2CCc3ccccc3C2)cc1 (centres unmarked) [Compound A0053]
inhibition at 0.01 µM [1, 10]: 34.8%
inhibition at 0.1 µM [1, 11]: 40%
inhibition at 1 µM [1, 12]: 46.9%
MOR agonist activity ([35S]GTPγS binding), FLNA-Binding Compound as Agonist 0.1 μM (mu opiate receptor (MOR); 0.1 μM compound): 78.5%
% DAMGO (0.1 μM) (mu opiate receptor (MOR); [7]): 46.5%
MOR agonist activity ([35S]GTPγS binding), FLNA-Binding Compound as Agonist 1 μM (mu opiate receptor (MOR); 1 μM compound): 118.2%
MOR agonist activity ([35S]GTPγS binding), FLNA-Binding Compound as Agonist 1 μM + BFNA (mu opiate receptor (MOR)): 15.1%
% DAMGO + BFNA (mu opiate receptor (MOR); [8]): 46.2%
% DAMGO (1 μM) (mu opiate receptor (MOR); [9]): 47.5%
Glucose utilization [2]: decreased the elevated glucose utilization
Glucose utilization (melanoma cells (A2058)): decreased the elevated glucose utilization
Glucose uptake / glucose content (primary lung fibroblasts): no significant inhibition in glucose content
Glucose utilization [3]: decreased the elevated glucose utilization

COc1c2c(cc3c1C(CC(=O)Cc1ccccc1F)[N+](C)(C)CC3)OCO2 (centres unmarked) [Compound B0055]
% DAMGO (0.1 μM) (mu opiate receptor (MOR); Series B, 0.1 μM compound, relative to DAMGO): 91.8%
MOR agonist activity, percent [35S]GTPγS binding at the stated compound concentration (mu opiate receptor (MOR); Series B, 0.1 μM compound, [35S]GTPγS binding to Gαo, striatal membranes): 162.1%
MOR agonist activity, percent [35S]GTPγS binding at the stated compound concentration (mu opiate receptor (MOR); Series B, 1 μM compound + 1 μM β-FNA): 117.5%
% DAMGO + BFNA (mu opiate receptor (MOR); Series B, 1 μM compound + β-FNA, relative to DAMGO + BFNA): 446.8%
% DAMGO (1 μM) (mu opiate receptor (MOR); Series B, 1 μM compound, relative to DAMGO): 133.1%
MOR agonist activity, percent [35S]GTPγS binding at the stated compound concentration (mu opiate receptor (MOR); Series B, 1 μM compound, [35S]GTPγS binding to Gαo, striatal membranes): 338.5%
Glucose utilization [2]: decreased the elevated glucose utilization
Glucose utilization (melanoma cells (A2058)): decreased the elevated glucose utilization
Glucose uptake / glucose content (primary lung fibroblasts): no significant inhibition in glucose content
Glucose utilization [3]: decreased the elevated glucose utilization

CC(=O)c1ccc(S(=O)(=O)N2CC(CN(C)C)OC23CCN(C)CC3)cc1 (centres unmarked) [Compound C0108M]
inhibition at 0.01 µM [1, 10]: 54.6%
inhibition at 0.1 µM [1, 11]: 61.4%
inhibition at 1 µM [1, 12]: 68.7%
% DAMGO (0.1 μM) (mu opiate receptor (MOR); [13]): 108.7%
MOR agonist activity, percent [35S]GTPγS binding at the stated compound concentration (mu opiate receptor (MOR); [14]): 205.6%
MOR agonist activity, percent [35S]GTPγS binding at the stated compound concentration (mu opiate receptor (MOR); [15]): 76.9%
% DAMGO + BFNA (mu opiate receptor (MOR); [16]): 158.6%
% DAMGO (1 μM) (mu opiate receptor (MOR); [17]): 104.1%
MOR agonist activity, percent [35S]GTPγS binding at the stated compound concentration (mu opiate receptor (MOR); [18]): 258.5%
Glucose utilization [2]: decreased the elevated glucose utilization
Glucose utilization (melanoma cells (A2058)): decreased the elevated glucose utilization
Glucose uptake / glucose content (primary lung fibroblasts): no significant inhibition in glucose content
Glucose utilization [3]: decreased the elevated glucose utilization

O=C1CNC2(CCN(CC3CC3)CC2)N1Cc1ccccc1 [Compound C0124M]
inhibition at 0.01 µM [1, 4]: 47.7%
inhibition at 0.1 µM [1, 5]: 52.2%
inhibition at 1 µM [1, 6]: 58.7%
Glucose utilization [2]: decreased the elevated glucose utilization
Glucose utilization (melanoma cells (A2058)): decreased the elevated glucose utilization
Glucose uptake / glucose content (primary lung fibroblasts): no significant inhibition in glucose content
Glucose utilization [3]: decreased the elevated glucose utilization

Cc1ccc(S(=O)(=O)N2CCOC23CCN(CC2CC2)CC3)cc1 [Compound C0134M]
inhibition at 0.01 µM [1, 4]: 55.7%
inhibition at 0.1 µM [1, 5]: 60.5%
inhibition at 1 µM [1, 6]: 61.9%
MOR agonist activity, FLNA-Binding Compound as Agonist 0.1 μM (preliminary study) (mu opiate receptor (MOR); 0.1 μM, average of two runs): 150.7%
MOR agonist activity, FLNA-Binding Compound as Agonist 1 μM + βNFA (preliminary study) (mu opiate receptor (MOR); 1 μM + βNFA, average of two runs): 53.2%
MOR agonist activity, FLNA-Binding Compound as Agonist 1 μM (preliminary study) (mu opiate receptor (MOR); 1 μM, average of two runs): 224.0%
% DAMGO (0.1 μM) (mu opiate receptor (MOR); [13]): 94.6%
MOR agonist activity, percent [35S]GTPγS binding at the stated compound concentration (mu opiate receptor (MOR); [14]): 158.5%
MOR agonist activity, percent [35S]GTPγS binding at the stated compound concentration (mu opiate receptor (MOR); [15]): 46.6%
% DAMGO + BFNA (mu opiate receptor (MOR); [16]): 98.1%
% DAMGO (1 μM) (mu opiate receptor (MOR); [17]): 93.3%
MOR agonist activity, percent [35S]GTPγS binding at the stated compound concentration (mu opiate receptor (MOR); [18]): 207.3%
Glucose utilization [2]: decreased the elevated glucose utilization
Glucose utilization (melanoma cells (A2058)): decreased the elevated glucose utilization
Glucose uptake / glucose content (primary lung fibroblasts): no significant inhibition in glucose content
Glucose utilization [3]: decreased the elevated glucose utilization

O=C1CN(Cc2ccccc2)C2(CCN(S(=O)(=O)c3cc(Cl)c(O)c(Cl)c3)CC2)N1 [Compound C0139M]
% DAMGO (0.1 μM) (mu opiate receptor (MOR); Series C-1, 0.1 μM compound, relative to DAMGO): 106.2%
% DAMGO + BFNA (mu opiate receptor (MOR); Series C-1, 1 μM compound + β-FNA, relative to DAMGO + BFNA): 129.8%
% DAMGO (1 μM) (mu opiate receptor (MOR); Series C-1, 1 μM compound, relative to DAMGO): 102.2%
Binding to any of more than 65 assayed receptors (more than 65 receptors): no significant binding
Glucose utilization [2]: decreased the elevated glucose utilization
Glucose utilization (melanoma cells (A2058)): decreased the elevated glucose utilization
Glucose uptake / glucose content (primary lung fibroblasts): no significant inhibition in glucose content
Glucose utilization [3]: decreased the elevated glucose utilization
